pKi: −log10 of the molar value.
Biological target: human recombinant PAK1-KD protein (Homo sapiens, UniProt Q13153)
Experiment: PAK1-KD (Kinase Domain) IC50 Zlyte Assay (FRET peptide substrate phosphorylation)
Conditions: Z'-LYTE, Biological Example 1

human recombinant PAK1-KD protein, sequence (Q13153 270-521 limits assumed): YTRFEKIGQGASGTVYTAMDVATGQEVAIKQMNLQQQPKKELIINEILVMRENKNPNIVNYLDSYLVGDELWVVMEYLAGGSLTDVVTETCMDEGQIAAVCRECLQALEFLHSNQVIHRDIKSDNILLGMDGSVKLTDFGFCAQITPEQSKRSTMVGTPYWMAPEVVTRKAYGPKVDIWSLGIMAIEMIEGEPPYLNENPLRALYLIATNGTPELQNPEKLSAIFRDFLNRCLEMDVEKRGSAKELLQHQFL

Row | Compound | pKi
1 | CCNc1ncc2cc(-c3ccc(-c4cncc(C)n4)cc3Cl)c(=O)n(CCC3CCCN3)c2n1 (single isomer, unassigned) [Example I-20] | 7.69
2 | CCNc1ncc2cc(-c3ccc(-c4cncc(C)n4)cc3Cl)c(=O)n(CCC3CNCCO3)c2n1 (single isomer, unassigned) [Example I-21] | 8.01
3 | CCNc1ncc2cc(-c3ccc(-c4cncc(C)n4)cc3Cl)c(=O)n(CCOC3CCNC3)c2n1 (single isomer, unassigned) [Example I-51] | 7.88
4 | CCNc1ncc2cc(-c3ccc(-c4cncc(C)n4)cc3Cl)c(=O)n(CC(C)OC3CNC3)c2n1 (single isomer, unassigned) [Example I-92] | 7.32
5 | Cc1cncc(-c2ccc(-c3cc4cnc(NC(C)C)nc4n(CCC4CNC(=O)C4)c3=O)c(Cl)c2)n1 (single isomer, unassigned) [Example I-98, 6-[2-Chloro-4-(6-methylpyrazin-2-yl)phenyl]-2-(isopropylamino)-8-[2-(5-oxopyrrolidin-3-yl)ethyl]pyrido[2,3-d]pyrimidin-7-one] | 7.66
6 | Cc1cncc(-c2ccc(-c3cc4cnc(NC(C)C)nc4n(CCC4CNC(=O)C4)c3=O)c(Cl)c2)n1 (single isomer, unassigned) [Example I-99, 6-[2-Chloro-4-(6-methylpyrazin-2-yl)phenyl]-2-(isopropylamino)-8-[2-(5-oxopyrrolidin-3-yl)ethyl]pyrido[2,3-d]pyrimidin-7-one] | 7.72
7 | CNc1ncc2cc(-c3ccc(-c4cncc(C)n4)cc3Cl)c(=O)n(CCC3CCNC3=O)c2n1 (single isomer, unassigned) [Example I-102, 6-[2-Chloro-4-(6-methylpyrazin-2-yl)phenyl]-2-(methylamino)-8-[2-(2-oxopyrrolidin-3-yl)ethyl]pyrido[2,3-d]pyrimidin-7-one] | 7.42
8 | CNc1ncc2cc(-c3ccc(-c4cncc(C)n4)cc3Cl)c(=O)n(CCC3CCNC3=O)c2n1 (single isomer, unassigned) [Example I-103, 6-[2-Chloro-4-(6-methylpyrazin-2-yl)phenyl]-2-(methylamino)-8-[2-(2-oxopyrrolidin-3-yl)ethyl]pyrido[2,3-d]pyrimidin-7-one] | 7.72
9 | CNc1ncc2cc(-c3ccc(-c4cccc(C)n4)cc3C)c(=O)n(CCC3CNCCO3)c2n1 (single isomer, unassigned) [Example I-104, 6-(2-Methyl-4-(6-methylpyridin-2-yl)phenyl)-2-(methylamino)-8-(2-(morpholin-2-yl)ethyl)pyrido[2,3-d]pyrimidin-7(8H)-one] | 8.64
10 | CCNc1ncc2cc(-c3ccc(-c4cncc(C)n4)cc3Cl)c(=O)n(CCC(O)CO)c2n1 (stereo in doubt) [Example I-79, (R)-6-(2-Chloro-4-(6-methylpyrazin-2-yl)phenyl)-8-(3,4-dihydroxybutyl)-2-(ethylamino)pyrido[2,3-d]pyrimidin-7(8H)-one] | 7.36
11 | CNc1ncc2cc(-c3ccc(-c4cncc(C)n4)cc3Cl)c(=O)n(CCCCN)c2n1 [Compound I-42, 8-(4-aminobutyl)-6-[2-chloro-4-(6-methylpyrazin-2-yl)phenyl]-2-(methylamino)pyrido[2,3-d]pyrimidin-7-one] | 7.63

Results, then the molecule that gave them:

Row | pKi | Compound
12 | 8.60 | Cc1cccc(-c2ccc(-c3cc4cnc(NCC(F)F)nc4n(CCC4CNCCO4)c3=O)c(C)c2)n1 (racemic) [Example I-126, 2-(2,2-Difluoroethylamino)-6-[2-methyl-4-(6-methyl-2-pyridyl)phenyl]-8-(2-morpholin-2-ylethyl)pyrido[2,3-d]pyrimidin-7-one]
13 | 8.52 | CNc1ncc2cc(-c3ccc(-c4cccc(C)n4)cc3C)c(=O)n(CCC3CNCCO3)c2n1 (single isomer, unassigned) [Example I-110]
14 | 9.00 | CCNc1ncc2cc(-c3ccc(-c4cccc(C)n4)cc3C)c(=O)n(CCC3CNCCO3)c2n1 (single isomer, unassigned) [Example I-112, 2-(Ethylamino)-6-(2-methyl-4-(6-methylpyridin-2-yl)phenyl)-8-(2-(morpholin-2-yl)ethyl)pyrido[2,3-d]pyrimidin-7(8H)-one]
15 | 8.77 | Cc1cccc(-c2ccc(-c3cc4cnc(NC5COC5)nc4n(CCC4CNCCO4)c3=O)c(C)c2)n1 (single isomer, unassigned) [Example I-113, 6-(2-Methyl-4-(6-methylpyridin-2-yl)phenyl)-8-(2-(morpholin-2-yl)ethyl)-2-(oxetan-3-ylamino)pyrido[2,3-d]pyrimidin-7(8H)-one]
16 | 9.15 | Cc1cccc(-c2ccc(-c3cc4cnc(NC5COC5)nc4n(CCC4CNCCO4)c3=O)c(C)c2)n1 (single isomer, unassigned) [Example I-114, 6-(2-methyl-4-(6-methylpyridin-2-yl)phenyl)-8-(2-(morpholin-2-yl)ethyl)-2-(oxetan-3-ylamino)pyrido[2,3-d]pyrimidin-7(8H)-one]
17 | 8.85 | CCNc1ncc2cc(-c3ccc(-c4cccc(C)n4)cc3C)c(=O)n(CCC3CNCCO3)c2n1 (single isomer, unassigned) [Example I-115]
18 | 7.74 | CCNc1ncc2cc(-c3ccc(-c4cncc(C)n4)cc3Cl)c(=O)n(C(C)COC3CNC3)c2n1 (single isomer, unassigned) [Example I-118, 8-[2-(azetidin-3-yloxy)-1-methyl-ethyl]-6-[2-chloro-4-(6-methylpyrazin-2-yl)phenyl]-2-(ethylamino)pyrido[2,3-d]pyrimidin-7-one]
19 | 7.11 | CCNc1ncc2cc(-c3ccc(-c4cncc(C)n4)cc3Cl)c(=O)n(C(C)COC3CNC3)c2n1 (single isomer, unassigned) [Example I-119, 8-[2-(azetidin-3-yloxy)-1-methyl-ethyl]-6-[2-chloro-4-(6-methylpyrazin-2-yl)phenyl]-2-(ethylamino)pyrido[2,3-d]pyrimidin-7-one]
20 | 8.82 | CNc1ncc2cc(-c3ccc(-c4cccc(C)n4)cc3Cl)c(=O)n(CCC3CNCCO3)c2n1 (single isomer, unassigned) [Example I-124, 6-(2-Chloro-4-(6-methylpyridin-2-yl)phenyl)-2-(methylamino)-8-(2-(morpholin-2-yl)ethyl)pyrido[2,3-d]pyrimidin-7(8H)-one]
21 | 8.33 | CNc1ncc2cc(-c3ccc(-c4cccc(C)n4)cc3Cl)c(=O)n(CCC3CNCCO3)c2n1 (single isomer, unassigned) [Example I-125, 6-(2-chloro-4-(6-methylpyridin-2-yl)phenyl)-2-(methylamino)-8-(2-(morpholin-2-yl)ethyl)pyrido[2,3-d]pyrimidin-7(8H)-one]
22 | 7.79 | CNc1ncc2cc(-c3ccc(-c4cccc(C)n4)cc3Cl)c(=O)n(CC3CNCCS3(=O)=O)c2n1 (single isomer, unassigned) [I-197 Isomer A, 6-[2-chloro-4-(6-methyl-2-pyridyl)phenyl]-8-[(1,1-dioxo-1 4-thiazinan-2-yl)methyl]-2-(methylamino)pyrido[2,3-d]pyrimidin-7-one]
23 | 7.50 | CNc1ncc2cc(-c3ccc(-c4cccc(C)n4)cc3Cl)c(=O)n(CC3CNCCS3(=O)=O)c2n1 (single isomer, unassigned) [I-197 Isomer B, 6-[2-chloro-4-(6-methyl-2-pyridyl)phenyl]-8-[(1,1-dioxo-1 4-thiazinan-2-yl)methyl]-2-(methylamino)pyrido[2,3-d]pyrimidin-7-one]
